Each structure is given as a SMILES string.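 Five compound concentrations were applied to cells in 96-well plates for 48 hours; endpoints were derived by simple linear interpolation of the resulting dose-response curve. Here, GI50 denotes the concentration required for 50% inhibition of growth.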 The source made the active and inactive calls. Cut-off read from the data, not from the text of the source: active = GI50 up to about 1.1 µM and inactive = higher. Bounds are passed on as bounds.

Holding throughout (test): inhibition of tumour cell growth, NCI panel, 48 h
Assay [1] relates to BT-549.
Assay [2] concerns CAKI-1.
Assay [3] deals with HCC 2998.
The subject of assay [4] is HL-60.
In assay [5] the test system is IGROV-1.
The test system of assay [6] is KM12.
Assay [7] concerns LOX IMVI.
The test system of assay [8] is MCF7.
In assay [9] the test system is MDA-MB-231.
The test system of assay [10] is MDA-N.
In assay [11] the test system is NCI-H23.
In assay [12] the test system is RPMI-8226.
Assay [13] relates to SF-268.
The subject of assay [14] is SK-MEL-28.
For assay [15], the system named is SNB-19.
In assay [16] the test system is SNB-75.
Assay [17] relates to U-251.
The test system of assay [18] is UO-31.
The test system of assay [19] is ACHN.
Assay [20] relates to Malme-3M.

On to `Cc1sc2nc3n(sc4nc5sc(C)c(C)c5c(=O)n43)c(=O)c2c1C`, for which the GI50 in assay [1] is 70.5 µM (inactive); in assay [2], 66.1 µM (inactive); in assay [3], > 100 µM (inactive); in assay [4], 40.3 µM (inactive); in assay [5], > 100 µM (inactive); in assay [6] it was > 100 µM (inactive). For the same compound, the GI50 in assay [7] was > 100 µM (inactive); in [8], 82.4 µM (inactive); in assay [9] it was 80.5 µM (inactive); in [10], > 100 µM (inactive); in assay [11], > 100 µM (inactive); in assay [12] it was > 100 µM (inactive). Besides, the GI50 is > 100 µM (inactive) in [13]; > 100 µM (inactive) in assay [14]; > 100 µM (inactive) in assay [15]; 4.81 µM (inactive) in assay [16]; > 100 µM (inactive) in assay [17]; > 100 µM (inactive) in assay [18].

Turning to `CN1CC[C@]23c4c5ccc(O)c4O[C@H]2C(O)CC[C@@]3(O)[C@H]1C5` (some centres not stated), the GI50 in [19], in assay [1], in assay [2], in assay [4], in [5] and in assay [6] was > 100 µM (inactive) throughout. The GI50 in assay [7], in assay [8], in assay [9], in assay [10], in [20] and in assay [11] was > 100 µM (inactive) throughout. In addition, the GI50 in [12], in [13], in assay [14], in assay [15], in assay [17] and in assay [18] was > 100 µM (inactive) in each case.

As for `Cc1ccc(S(=O)(=O)NC(=O)NC(C(=O)O)C(C)C)cc1` (configuration not stated), the GI50 in assay [19], in assay [1], in assay [4], in [5], in [6] and in assay [7] was > 100 µM (inactive) throughout. For the same compound, the GI50 in [8], in assay [9], in assay [10], in [20], in [11] and in [12] was > 100 µM (inactive) each time. Moreover, the GI50 in assay [13], in assay [14], in [15], in assay [16], in assay [17] and in assay [18] was > 100 µM (inactive) each time.

On to `COc1ccc(OC)c(-c2nc3n(c2/C=C2/C(=O)Nc4ccccc42)CCS3)c1`, for which the GI50 was 90.6 µM (inactive) in assay [19]; 81.5 µM (inactive) in assay [1]; 51.4 µM (inactive) in [2]; 33.9 µM (inactive) in [4]; 36 µM (inactive) in [5]; 30.1 µM (inactive) in assay [6]. Further, the GI50 in [7] is 51.2 µM (inactive); in [8] it was 46.7 µM (inactive); in assay [9], 25.6 µM (inactive); in [10], 18.2 µM (inactive); in [20] it was 92.7 µM (inactive); in assay [11], > 100 µM (inactive). For the same compound, the GI50 is 35 µM (inactive) in assay [12]; 67.5 µM (inactive) in assay [13]; > 100 µM (inactive) in [14]; > 100 µM (inactive) in assay [15]; 22.3 µM (inactive) in assay [16]; 67 µM (inactive) in [17]. For the same compound, the GI50 in assay [18] is 41.4 µM (inactive).

As for `O=C(Oc1c(Cl)cc(C2(c3cc(Cl)c(OC(=O)c4ccccc4)c(Cl)c3)CCCCC2)cc1Cl)c1ccccc1`, the GI50 is 5.15 µM (inactive) in assay [19]; 14.7 µM (inactive) in assay [1]; 5.01 µM (inactive) in [2]; 10.1 µM (inactive) in assay [3]; 3.32 µM (inactive) in assay [4]; 10.6 µM (inactive) in assay [5]. The GI50 in [6] was 5.08 µM (inactive); in assay [7] it was 14.2 µM (inactive); in assay [8], 11.1 µM (inactive); in assay [9] it was 13.7 µM (inactive); in assay [10], 12.7 µM (inactive); in [11], 10.4 µM (inactive). The GI50 in assay [12] was 11.9 µM (inactive); in [13], 12.6 µM (inactive); in assay [14], 14.7 µM (inactive); in assay [15], 17.6 µM (inactive); in assay [16], 11.7 µM (inactive); in [17], 13.8 µM (inactive). Besides, the GI50 in assay [18] was 18.5 µM (inactive).

As for `Cc1ccc2c(c1)SSSSS2`, the GI50 in [19] is 18.4 µM (inactive); in assay [1], 19.8 µM (inactive); in assay [2], 21 µM (inactive); in assay [3], 17.7 µM (inactive); in assay [4], 20 µM (inactive); in assay [5], 19.3 µM (inactive). For the same compound, the GI50 in assay [6] is 18.9 µM (inactive); in assay [7] it was 16.2 µM (inactive); in assay [8] it was 18.6 µM (inactive); in assay [9] it was 25.6 µM (inactive); in assay [10] it was 23.4 µM (inactive); in assay [20] it was 17.7 µM (inactive). Besides, the GI50 in assay [11] is 20.8 µM (inactive); in assay [13], 25.8 µM (inactive); in assay [14] it was 17.1 µM (inactive); in [15], 20.6 µM (inactive); in assay [16] it was 23.8 µM (inactive); in assay [17] it was 34.3 µM (inactive). Moreover, in assay [18], the GI50 is 16.3 µM (inactive).

In the case of `COC1/C=C\C=C(/C)C(=O)Nc2cc3nc4ccc(Br)cc4oc-3c(c2=O)CC(C)CC(OC)C(O)C(C)/C=C(\C)C1OC(N)=O` (configuration not stated), the GI50 was 0.21 µM (active) in [19]; 0.00429 µM (active) in [1]; 0.292 µM (active) in assay [2]; 0.126 µM (active) in [3]; 0.0128 µM (active) in assay [4]; 0.436 µM (active) in assay [5]. The GI50 in assay [6] was 2.26 µM (inactive); in [7], 0.0565 µM (active); in [8], 0.000752 µM (active); in assay [9] it was 0.00849 µM (active); in [10], 0.00451 µM (active); in assay [20] it was 0.0179 µM (active). Besides, the GI50 was 0.119 µM (active) in [12]; 0.499 µM (active) in assay [13]; 0.0137 µM (active) in [14]; 13 µM (inactive) in assay [15]; 7.08 µM (inactive) in [16]; 4.46 µM (inactive) in assay [17]. In assay [18], the GI50 is 0.12 µM (active).

`OCC1OC(Oc2cc(O)cc(/C=C\c3ccc(O)cc3)c2)C(O)C(O)C1O` (configuration not stated): the GI50 in [19], in [1], in assay [2], in assay [4], in assay [5] and in [6] was > 100 µM (inactive) in each case. The GI50 in [7], in assay [8], in [9], in assay [10], in assay [12] and in assay [14] was > 100 µM (inactive) in each case. Moreover, the GI50 in assay [15], in [16], in assay [17] and in [18] was > 100 µM (inactive) in each case.

As for `CC(=O)c1nc2ccccc2n1C(C)C(=O)c1ccccc1` (configuration not stated), the GI50 in [1] is 52 µM (inactive); in [2] it was 61.5 µM (inactive); in [4] it was 29.6 µM (inactive); in assay [5], 30.2 µM (inactive); in assay [6], 58.3 µM (inactive); in [7], 34.3 µM (inactive). Besides, the GI50 was 22.2 µM (inactive) in assay [8]; 36.1 µM (inactive) in assay [9]; 54.1 µM (inactive) in assay [10]; 50.2 µM (inactive) in assay [20]; > 100 µM (inactive) in assay [11]; 51.6 µM (inactive) in assay [12]. The GI50 is 26.5 µM (inactive) in assay [13]; > 100 µM (inactive) in assay [14]; 77.6 µM (inactive) in assay [15]; > 100 µM (inactive) in assay [16]; 57.3 µM (inactive) in [17]; 50.7 µM (inactive) in assay [18].

Consider `CC(CO)(CO)/N=C/c1cc(I)cc(I)c1O`, for which the GI50 was 25 µM (inactive) in assay [19]; 14 µM (inactive) in assay [1]; 22.2 µM (inactive) in [2]; 11.2 µM (inactive) in assay [4]; 9.4 µM (inactive) in assay [5]; 14.5 µM (inactive) in assay [6]. In addition, the GI50 in [7] was 10.3 µM (inactive); in assay [8], 19.5 µM (inactive); in assay [9], 18.7 µM (inactive); in assay [10], 19.7 µM (inactive); in assay [20] it was 13.1 µM (inactive); in assay [11] it was 21.8 µM (inactive). Also, the GI50 in assay [12] was 21.3 µM (inactive); in [13], 5.62 µM (inactive); in assay [14], 16.6 µM (inactive); in [15], 20.3 µM (inactive); in [16] it was 12.9 µM (inactive); in assay [17], 12.8 µM (inactive). The GI50 in assay [18] was 12 µM (inactive).

In the case of `O=C(Nc1ncc([N+](=O)[O-])s1)c1ccccc1O` [TIZOXANIDE], the GI50 in assay [19] is 18.7 µM (inactive); in assay [1], 19.1 µM (inactive); in assay [2], 29.6 µM (inactive); in assay [3], 13.6 µM (inactive); in assay [5] it was 23.6 µM (inactive); in assay [6], 15.3 µM (inactive). Also, the GI50 in assay [7] was 24.6 µM (inactive); in assay [8], 13.7 µM (inactive); in assay [9] it was 23.5 µM (inactive); in assay [10], 27 µM (inactive); in assay [20] it was 12.9 µM (inactive); in assay [11], 12.5 µM (inactive). Also, the GI50 in assay [12] is 7 µM (inactive); in [13], 13.6 µM (inactive); in [14] it was 26.4 µM (inactive); in assay [15] it was 16.2 µM (inactive); in [16], 18.1 µM (inactive); in assay [17], 14.9 µM (inactive). The GI50 in assay [18] was 23.7 µM (inactive).

The values above are taken from ChEMBL document CHEMBL1201862, “PubChem BioAssay data set” (2004).
